Reference: ChEMBL document CHEMBL2040811, “Synthesis and biological evaluation of new homocamptothecin analogs” (Eur J Med Chem, 2012)
Active and inactive are the calls of the source. The rule behind the calls is not given here.

What was measured:
[1] = biological target: T1, DNA topoisomerase 1 (Homo sapiens) (UniProt P11387); test: Inhibition of topo 1-mediated relaxation of supercoiled pBR322 at 10 to 100 uM after 30 mins using ethidium bromide by agarose-gel electrophoresis
T1 sequence (whole entry): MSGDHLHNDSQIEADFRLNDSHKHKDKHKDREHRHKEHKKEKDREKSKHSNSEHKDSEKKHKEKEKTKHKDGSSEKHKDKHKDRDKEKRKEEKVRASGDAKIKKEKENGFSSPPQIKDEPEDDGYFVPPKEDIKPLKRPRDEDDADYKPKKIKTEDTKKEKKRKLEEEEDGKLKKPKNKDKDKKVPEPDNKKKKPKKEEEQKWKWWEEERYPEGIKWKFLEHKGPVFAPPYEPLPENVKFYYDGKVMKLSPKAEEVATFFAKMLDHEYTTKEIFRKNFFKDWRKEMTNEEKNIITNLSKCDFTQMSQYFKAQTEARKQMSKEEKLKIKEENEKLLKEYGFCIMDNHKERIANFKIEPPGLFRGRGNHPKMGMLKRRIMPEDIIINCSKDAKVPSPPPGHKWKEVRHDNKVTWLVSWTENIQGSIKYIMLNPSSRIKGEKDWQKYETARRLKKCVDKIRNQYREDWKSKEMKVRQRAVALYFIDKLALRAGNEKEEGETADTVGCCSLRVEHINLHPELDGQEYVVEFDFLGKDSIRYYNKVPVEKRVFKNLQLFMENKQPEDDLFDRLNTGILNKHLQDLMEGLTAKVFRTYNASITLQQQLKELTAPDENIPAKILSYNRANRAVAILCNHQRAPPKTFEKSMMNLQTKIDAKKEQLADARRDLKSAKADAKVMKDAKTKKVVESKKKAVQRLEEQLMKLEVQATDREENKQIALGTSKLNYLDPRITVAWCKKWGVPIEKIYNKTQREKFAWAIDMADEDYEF

HCT-116 = test: Cytotoxicity against human HCT116 after 72 hrs by SRB assay; assay type: functional, cell-based; settings: HCT-116, 72 h
A549 = test: Cytotoxicity against human A549 after 72 hrs by SRB assay; assay type: functional, cell-based; settings: A549, 72 h
[2] = Stability of the compound assessed as retention of lactone group at pH 7 after 8 hrs in presence of human serum albumin by HPLC analysis; assay type: ADME; settings: for Stability: buffer, pH 7, 8 h; for remaining at 8 h: human serum albumin solution, pH 7, read-out: Stability
[3] = Stability of the compound assessed as retention of lactone group in phosphate buffer at pH 7 after 8 hrs by HPLC analysis; assay type: physicochemical; settings: for Stability: buffer, pH 7, 8 h; for remaining at 8 h: phosphate buffer, pH 7, read-out: Stability

Compound	inhibition [1]	IC50 (HCT-116) [nM]	IC50 (A549) [nM]	Stability [2]	Stability [3]	remaining at 8 h [2] [%]	remaining at 8 h [3] [%]
CC[C@]1(O)c2cc3n(c(=O)c2COC(=O)[C@@H]1O)Cc1cc2cc(OC)ccc2nc1-3	Active	10.6	4.8				
CC[C@]1(O)c2cc3n(c(=O)c2COC(=O)[C@@H]1O)Cc1cc2ccccc2nc1-3	Active	49.3	16.8	Stable	Stable		
CC[C@]1(O)c2cc3n(c(=O)c2COC(=O)[C@@H]1O)Cc1cc2cc4c(cc2nc1-3)OCCO4	Active	3.4	2.9				
CC[C@@]1(O)C(=O)OCc2c1cc1n(c2=O)Cc2cc3ccccc3nc2-1 [CAMPTOTHECIN]		22.9	33.8			20	< 40
CCc1c2c(nc3ccc(O)cc13)-c1cc3c(c(=O)n1C2)COC(=O)[C@]3(O)CC	Active						
CC[C@@]1(O)C(=O)OCc2c1cc1n(c2=O)Cc2cc3cc(O)ccc3nc2-1 [HYDROXYCAMPTOTHECIN]	Active	31.2	33.6				
CC[C@]1(O)c2cc3n(c(=O)c2COC(=O)[C@@H]1OC(C)=O)Cc1cc2ccccc2nc1-3	Active	14.2	49.2	Stable	Stable		
CC[C@]1(O)c2cc3n(c(=O)c2COC(=O)[C@@H]1OC(C)=O)Cc1cc2cc4c(cc2nc1-3)OCO4	Active	2.1	1.2	Stable	Stable		
CC[C@]1(O)c2cc3n(c(=O)c2COC(=O)[C@@H]1O)Cc1cc2cc4c(cc2nc1-3)OCO4	Active	3.1	3.1				
CC[C@]1(O)c2cc3n(c(=O)c2COC(=O)[C@@H]1OC(C)=O)Cc1cc2cc(OC)ccc2nc1-3	Active	4.4	4.7				
CC[C@]1(O)c2cc3n(c(=O)c2COC(=O)[C@@H]1OC(C)=O)Cc1cc2cc4c(cc2nc1-3)OCCO4	Active	4.9	4.6			55	90
